# Measured values published in USRE47193E1, “Selectively substituted quinoline compounds” (EISAI R&D MANAGEMENT CO., LTD., priority 2013, dated 2019).
# pIC50: −log10 of the molar value.
# Test system: Human TLR7/8
# Experiment: Human PBMC cell-based assay, TLR7/8 stimulus (RNA-Ig), cytokine ELISA
# Conditions: primary human PBMC assay, TLR7/8 potency; ligand not given; read-out: Human PBMCs IC50
# Description: Human PBMC Cell-Based Assay. Human peripheral blood mononuclear cells (PBMC) were isolated from freshly-drawn heparinized (10 USP units/ml, Hospira, Lakeforest, Ill.) healthy donor whole blood by density gradient (Histopaque® 1077, Sigma, Inc., St. Louis, Mo.). Briefly, 25 ml blood was diluted with 15 ml PBS (without Ca^2+, Mg^2+) in a 50 ml conical tube, and 12 ml Histopaque was underlaid using a spinal needle. Tubes were centrifuged for 45 minutes at 1200 rpm (350×g), and PBMC were collected from the buffy coat. Cells were then washed twice in PBS, and red blood cells were lysed by suspension in 5 ml ammonium chloride solution (1× Red Blood Cell Lysis Buffer, eBioscience) for 5 minutes at room temperature. After a final wash in PBS, PBMC were resuspended at a final concentration of 2×10^6/ml in RPMI-1640 media with L-glutamine (Invitrogen) and supplemented with 25 mM HEPES (Mediatech, Inc, Manassas Va.), 10% fetal bovine serum (HyClone, Logan, Utah), and Penicillin-Streptomycin-Glutamine (Mediatech) and plated at 100 ul/well (2×10^5 cells/well) in tissue culture treated 96-well plates (Falcon).
# Antagonist compounds solubilized and serial diluted in 100% DMSO were added in triplicate to cells to yield a final concentration of 0.1% DMSO (v/v). Hydroxychloroquine (Acros Organics) solubilized and serial diluted in PBS was added in triplicate to cells. PBMC were incubated with antagonist compounds or HCQ for 30 minutes at 37° C., 5% CO2 before adding various TLR agonist reagents in 100 ul complete media per well as follows (final concentrations indicated): R848 (Resiquimod; GLSynthesis, Worcester, Mass.) at 1 uM for TLR7 and TLR8, LPS (Sigma) at 10 ng/ml for TLR4, and CpG-2216 (InvivoGen) at 5 ug/ml for TLR9. To prepare a TLR7/8 agonist that mimics RNA-containing auto-antibody immune complexes in lupus patients, a 26-mer RNA with a sequence derived from human U1 snRNA stem loop IV [(sequence: […]-[…] (SEQ ID NO: 2) with phosphorothioate backbone] was synthesized (Dharmacon, Inc., Lafayette, Colo.), which has been shown previously to be a potent TLR7 and TLR8 agonist. This RNA molecule was diluted to 2.5 μM in serum-free RPMI, and mouse anti-human single stranded DNA monoclonal antibody (MAB3034, Millipore, Inc., Billerica, Mass.), which also cross-reacts with RNA, was added at a 1:25 dilution or at 1 ug/ml. The resulting “RNA-Ig” stimulus was incubated at room temperature for 15-30 minutes before adding to cells. PBMC were incubated with the various TLR agonists for 20 hours at 37° C., 5% CO2. Cell culture supernatants were collected, and levels of various human cytokines were assessed as indicated by standard ELISA procedure according to the manufacturer's recommended protocol (BD Biosciences, Inc., San Diego, Calif.). In a subsequent assay (Table 6) the ability of ER-899742 to block stimulation of normal PBMC by various TLR7/8 ligands, but not DNA-mediated activation of TLR9, was examined. In this assay cells were plated at 1×10^5 cells/well in 100 ul in 96-well plates.
row,Compound,pIC50
1,CC1CN(c2ccc(C#N)c3ncccc23)CC(C(=O)NC2CNCCC2F)O1.Cl (mixture of isomers) [ER-899477],8.22
2,COCCNC(=O)C1CN(c2ccc(C#N)c3ncccc23)CC(C)O1 (centres unmarked) [ER-897385],6.85
3,CC(O)CNC(=O)C1CN(c2ccc(C#N)c3ncccc23)CC(C)O1 (centres unmarked) [ER-897445],6.98
4,CC(CO)NC(=O)C1CN(c2ccc(C#N)c3ncccc23)CC(C)O1 (centres unmarked) [ER-897446],7.28
5,CC(CO)NC(=O)C1CN(c2ccc(C#N)c3ncccc23)CC(C)O1 (centres unmarked) [ER-897447],7.00
6,CCC(CO)NC(=O)C1CN(c2ccc(C#N)c3ncccc23)CC(C)O1 (centres unmarked) [ER-897827],7.41
7,CC1CN(c2ccc(C#N)c3ncccc23)CC(C(=O)NC(CO)C(C)C)O1 (centres unmarked) [ER-897828],7.68
8,CCC(O)CNC(=O)C1CN(c2ccc(C#N)c3ncccc23)CC(C)O1 (centres unmarked) [ER-897922],7.19
9,CC1CN(c2ccc(C#N)c3ncccc23)CC(C(=O)NC2CCCCC2O)O1 (centres unmarked) [ER-897938],7.80
10,CC1CN(c2ccc(C#N)c3ncccc23)CC(C(=O)NC(CO)C(C)(C)C)O1 (centres unmarked) [ER-897940],7.68
11,CC1CN(c2ccc(C#N)c3ncccc23)CC(C(=O)NCC2CN(C)CCO2)O1 (centres unmarked) [ER-897945],8.70
12,CC1CN(c2ccc(C#N)c3ncccc23)CC(C(=O)NC2CNC2)O1 (centres unmarked) [ER-897964],7.70
13,CC1CN(c2ccc(C#N)c3ncccc23)CC(C(=O)NC2CCNC2)O1 (centres unmarked) [ER-897965],8.00
14,CC1CN(c2ccc(C#N)c3ncccc23)CC(C(=O)NC2CCCNC2)O1 (centres unmarked) [ER-897967],7.89
15,CC1CN(c2ccc(C#N)c3ncccc23)CC(C(=O)NCC(F)(F)F)O1 (centres unmarked) [ER-898563],6.91
16,CC1CN(c2ccc(C#N)c3ncccc23)CC(C(=O)NCCC(F)(F)F)O1 (centres unmarked) [ER-898565],6.70
17,CC1CN(c2ccc(C#N)c3ncccc23)CC(C(=O)NCC2CN(C)CCO2)O1 (centres unmarked) [ER-898707],8.70
18,CC1CN(c2ccc(C#N)c3ncccc23)CC(C(=O)NCCF)O1 (centres unmarked) [ER-898914],6.77
19,CC1CN(c2ccc(C#N)c3ncccc23)CC(C(=O)Nc2ccnn2C)O1 (centres unmarked) [ER-898919],7.26
20,C[C@@H]1CN(c2ccc(C#N)c3ncccc23)C[C@H](C(=O)NC2(C#N)CC2)O1 [ER-898921],6.52
21,CC1CN(c2ccc(C#N)c3ncccc23)CC(C(=O)Nc2ncns2)O1 (centres unmarked) [ER-898922],< 6.00
22,Cc1nsc(NC(=O)C2CN(c3ccc(C#N)c4ncccc34)CC(C)O2)n1 (centres unmarked) [ER-898923],6.20
23,CC1CN(c2ccc(C#N)c3ncccc23)CC(C(=O)NCC2(F)CCNCC2)O1 (centres unmarked) [ER-899019],7.85

row,Compound,pIC50
1,CC1CN(c2ccc(C#N)c3ncccc23)CC(C(=O)NCC2CNC2)O1 (centres unmarked) [ER-899020],7.46
2,C[C@@H]1CN(c2ccc(C#N)c3ncccc23)C[C@H](C(=O)N2CC3(CCCNC3)C2)O1 [ER-899021],8.30
3,CC1CN(c2ccc(C#N)c3ncccc23)CC(C(=O)NCC2COC2)O1 (centres unmarked) [ER-899121],6.85
4,CNCCNC(=O)C1CN(c2ccc(C#N)c3ncccc23)CC(C)O1 (centres unmarked) [ER-899140],7.96
5,C[C@@H]1CN(c2ccc(C#N)c3ncccc23)C[C@H](C(=O)NCCN(C)C)O1 [ER-899154],7.85
6,CC1CN(c2ccc(C#N)c3ncccc23)CC(C(=O)NCCC(O)C(F)(F)F)O1 (centres unmarked) [ER-899160],6.60
7,CC1CN(c2ccc(C#N)c3ncccc23)CC(C(=O)NCC2CNCCO2)O1 (centres unmarked) [ER-899278],9.00
8,CC1CN(c2ccc(C#N)c3ncccc23)CC(C(=O)Nc2ccncc2)O1 (centres unmarked) [ER-899282],7.47
9,CC1CN(c2ccc(C#N)c3ncccc23)CC(C(=O)NCc2ccn[nH]2)O1 (centres unmarked) [ER-899287],6.92
10,CC1CN(c2ccc(C#N)c3ncccc23)CC(C(=O)NCC2CCCCN2C)O1 (centres unmarked) [ER-899293],7.89
11,C[C@@H]1CN(c2ccc(C#N)c3ncccc23)C[C@H](C(=O)Nc2n[nH]cc2C#N)O1 [ER-899295],7.49
12,C[C@@H]1CN(c2ccc(C#N)c3ncccc23)C[C@H](C(=O)N[C@H]2CN(C)C[C@H]2F)O1 [ER-899332],7.85
13,CC1CNCC(CNC(=O)C2CN(c3ccc(C#N)c4ncccc34)CC(C)O2)O1 (centres unmarked) [ER-899366],9.00
14,CC1CN(c2ccc(C#N)c3ncccc23)CC(C(=O)N2CC3CNCC3C2)O1 (centres unmarked) [ER-899367],7.92
15,CC1CN(c2ccc(C#N)c3ncccc23)CC(C(=O)NCC2CCCN2)O1 (centres unmarked) [ER-899414],7.60
16,CC1CN(c2ccc(C#N)c3ncccc23)CC(C(=O)NCC2CCCCN2)O1 (centres unmarked) [ER-899415],7.89
17,C[C@@H]1CN(c2ccc(C#N)c3ncccc23)C[C@H](C(=O)NC2CC3CCC(C2)N3)O1 (some centres unmarked) [ER-899416],6.37
18,CNC(=O)[C@H]1CN(c2ccc(C#N)c3ncccc23)C[C@@H](C)O1 [ER-899431],6.46
19,CC1CN(c2ccc(C#N)c3ncccc23)CC(C(=O)N2CCC(N(C)C)CC2)O1 (centres unmarked) [ER-899459],7.80
20,CC1CN(c2ccc(C#N)c3ncccc23)CC(C(=O)NC2CC3(CNC3)C2)O1 (centres unmarked) [ER-899479],8.70
21,C[C@@H]1CN(c2ccc(C#N)c3ncccc23)C[C@H](C(=O)N2CCC(N)CC2)O1 [ER-899588],8.15
22,CCN1CCC(NC(=O)[C@H]2CN(c3ccc(C#N)c4ncccc34)C[C@@H](C)O2)CC1 [ER-899626],9.00

# Target: T1, mouse TLR7 (Mus musculus, UniProt P58681)
# T1 sequence (P58681 27-1050): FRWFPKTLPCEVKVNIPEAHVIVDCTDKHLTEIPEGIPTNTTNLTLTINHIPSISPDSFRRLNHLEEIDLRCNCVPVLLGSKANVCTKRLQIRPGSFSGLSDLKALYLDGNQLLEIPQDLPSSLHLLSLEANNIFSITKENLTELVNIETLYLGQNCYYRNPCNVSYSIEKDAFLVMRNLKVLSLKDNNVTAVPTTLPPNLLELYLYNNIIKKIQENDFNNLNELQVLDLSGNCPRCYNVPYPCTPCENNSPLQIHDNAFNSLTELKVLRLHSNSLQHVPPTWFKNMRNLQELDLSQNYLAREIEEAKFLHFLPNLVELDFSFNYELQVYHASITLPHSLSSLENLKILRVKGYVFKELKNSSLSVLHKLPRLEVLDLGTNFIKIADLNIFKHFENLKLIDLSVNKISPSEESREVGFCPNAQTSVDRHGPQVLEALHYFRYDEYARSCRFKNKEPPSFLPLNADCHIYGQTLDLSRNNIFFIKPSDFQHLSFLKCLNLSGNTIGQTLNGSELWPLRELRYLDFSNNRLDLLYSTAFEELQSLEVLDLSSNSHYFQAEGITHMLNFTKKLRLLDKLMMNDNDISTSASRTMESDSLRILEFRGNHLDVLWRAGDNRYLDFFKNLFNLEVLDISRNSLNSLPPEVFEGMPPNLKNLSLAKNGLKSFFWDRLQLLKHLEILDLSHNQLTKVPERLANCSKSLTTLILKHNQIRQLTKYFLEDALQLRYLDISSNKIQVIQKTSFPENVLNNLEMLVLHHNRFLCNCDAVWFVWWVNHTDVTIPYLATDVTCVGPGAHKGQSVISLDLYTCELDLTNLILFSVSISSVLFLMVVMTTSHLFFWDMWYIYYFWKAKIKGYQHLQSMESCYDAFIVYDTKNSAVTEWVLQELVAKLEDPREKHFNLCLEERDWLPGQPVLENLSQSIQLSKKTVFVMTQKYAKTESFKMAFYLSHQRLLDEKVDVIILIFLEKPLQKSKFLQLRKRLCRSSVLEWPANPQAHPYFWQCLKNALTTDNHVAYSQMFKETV
# Experiment: Short-term in vivo (STIV) assay: oral dosing, R848 s.c., plasma IL-6
# Parameters: female BALB/c mice (Jackson Labs, Bar Harbor, Me.) were dosed by oral gavage; tissue Jackson Labs; host or cells: living female BALB/c mice; plasma IL-6 after s.c. R848
# Conditions: 6 h; 100 mg/kg
# Description: Figure Legend: Female BALB/c mice were dosed by oral gavage with Vehicle alone (0.5% aqueous methyl-cellulose) or compound formulated in Vehicle at 33 mg/kg, 100 mg/kg or 300 mg/kg. […] (FIG. 1A).
# Short-term in vivo (STIV) assay: To assess compound potency in vivo against mouse TLR7, a short-term in vivo (STIV) assay was utilized. Briefly, mice were orally dosed with compounds and at various time points afterwards were injected subcutaneously with agonist R848 to stimulate TLR7. The plasma IL-6 level following R848 stimulation was then measured by ELISA to assess compound potency and duration-of-action.
# Short-term in vivo (STIV) assay. Six to eight week old female BALB/c mice (Jackson Labs, Bar Harbor, Me.) were dosed by oral gavage in 200 ul volume with antagonist compounds formulated in 0.5% aqueous methyl-cellulose (Sigma, St. Louis, Mo.). At various time points afterwards, mice were injected subcutaneously (s.c.) in 100 ul volume with 15 ug R848 (Resiquimod; GLSynthesis, Worcester, Mass.) to stimulate TLR7.
row,Compound,% Suppression vs. Vehicle
1,CC1CN(c2ccc(C#N)c3ncccc23)CC(C(=O)NC2CNCCC2F)O1.Cl (mixture of isomers) [ER-899477],96%

# Same assay, conditions: 13 h; 100 mg/kg
row,Compound,% Suppression vs. Vehicle
1,CC1CN(c2ccc(C#N)c3ncccc23)CC(C(=O)NC2CNCCC2F)O1.Cl (mixture of isomers) [ER-899477],68%
